# Laboratory results: US20190290656A1, “PT(IV) PRODRUGS” (YISSUM RESEARCH DEVELOPMENT COMPANY OF THE HEBREW …, priority 2015, published 2019)
# Like-named read-outs stand apart in the source and are kept apart here.
# Assays:
# BxPC3 cells = experiment: MTT cytotoxicity assay, BxPC3; format: cell-based, human; conditions: for IC50: BxPC3, 72 h exposure, MTT, read-out: IC50 (median growth inhibitory concentration)
# MCF-7 cells [1] = experiment: MTT cytotoxicity assay, MCF-7; format: cell-based, human; conditions: for IC50: MCF-7, 72 h exposure, MTT, read-out: IC50 (median growth inhibitory concentration)
# Procedure: (§1) Cisplatin (CDDP) and oxaliplatin (OXP) were dissolved just before the experiment in a 0.9% NaCl solution.
# (§2) Human prostate adenocarcinoma (PC3) cells were obtained from European Collection of Cell Cultures (ECACC, Salisbury, UK). Human ovarian cancer cell lines A2780 and its cisplatin resistant variant, A2780cisR, were kindly provided by Prof.
# (§3) Triplicate cultures were established for each treatment.
# A2780cisR cells = experiment: MTT cytotoxicity assay, A2780cisR (cisplatin resistant); format: cell-based, human; conditions: for IC50: 72 h exposure, MTT, read-out: IC50 (median growth inhibitory concentration); for resistance factor: ratio IC50 resistant (A2780cisR) / sensitive (A2780) cells
# Procedure: (§4) Platinum(IV) complexes were dissolved in DMSO to stock solutions of 1 mg/mL just before the experiment, and a calculated amount of drug solution was added to the cell growth medium to a final solvent concentration of 0.5%, which had no discernible effect on cell killing. Cisplatin (CDDP) and oxaliplatin (OXP) were dissolved just before the experiment in a 0.9% NaCl solution.
# as §2
# (§5) Cancer Res. 1988, 48, 589-601]. […] Triplicate cultures were established for each treatment.
# nine cancer cell lines = experiment: MTT cytotoxicity, over the nine cancer cell lines; conditions: for IC50: read-out: average IC50 values for the nine cancer cell lines, mean over nine cell lines, 72 h MTT
# A498 cells = experiment: MTT cytotoxicity assay, A498; format: cell-based, human; conditions: A498, 72 h exposure, read-out: IC50 (median growth inhibitory concentration)
# Procedure: as §4, §2, §5
# A549 cells = experiment: MTT cytotoxicity assay, A549; format: cell-based, human; conditions: A549, 72 h exposure, MTT; read-out: IC50 (median growth inhibitory concentration)
# Procedure: as §1, §2, §3
# [2] = test system: Lewis lung carcinoma (LLC); experiment: In vivo efficacy study, Lewis lung carcinoma mouse model; parameters: species or system C57BL mice; conditions: daily dose 20 mg kg^-1 orally, day 7-14, LLC in C57BL mice
# Procedure: A preliminary in vivo efficacy study was carried out on a mouse model (see Table 3 below):
# Lewis lung carcinoma (LLC) was implanted i.m. (2·10^6 cells inoculum) into the right hind leg of 8-week old inbred C57BL mice (24±3 g body weight). Chemotherapy was delayed until the tumor became visible (day 7).
# A2780 cells = experiment: MTT cytotoxicity assay, A2780; format: cell-based, human; conditions: for IC50: A2780, 72 h exposure, MTT, read-out: IC50 (median growth inhibitory concentration)
# Procedure: as §4, §2, §5
# HCT-15 cells = experiment: MTT cytotoxicity assay, HCT-15; format: cell-based, human
# Procedure: (§6) Cisplatin (CDDP) and oxaliplatin (OXP) were dissolved just before the experiment in a 0.9% NaCl solution. […]
# as §5
# (§7) MTT assay. […] Triplicate cultures were established for each treatment.
# (§8) The two dimers, 3a and 3b, as well as compounds 1a and 2a were screened against six human cancer cell lines representative of lung (H157), colon (HCT-15), cervical (A431), ovarian (2008) and pancreatic (PSN1) cancers, along with melanoma (A375). Cytotoxicity was evaluated by means of the MTT test after 72 h of treatment and the in vitro antitumor potential of newly synthesized derivatives was compared to that of the reference metallo-drugs CDDP and OXP.
# [3] = test system: Histone deacetylase (HDAC); experiment: Histone deacetylase assay (Fluor-de-Lys) in MCF-7 cells; format: cell-based, human
# Procedure: Histone deacetylase activity was determined using Fluor-de-Lys® HDAC fluorometric activity assay kit (Enzo Life Sciences International, Inc., Plymount Meeting, Pa., U.S.A.). […] Fluorescence was measured using a Fluoroskan Ascent FL (Labsystem, Finland) plate reader, with excitation at 360 nm and emission at 460 nm. For comparison purpose, the HDAC activity was also measured in nuclear extracts of MCF-7-treated cells by means of the same fluorometric activity assay kit. In this latter case, MCF-7 nuclear extracts were obtained as follow: cell pellets were re-suspended in lysis buffer [Tris.HCl (10 mM, pH 8.0), KCl (60 mM), EDTA (1.2 mM), DTT (1 mM), PMSF (0.05 mM), NP-40 (0.05%)] and kept on ice for 10 min. Subsequently, samples were centrifuged at 1000 g and re-suspended in the nuclear extraction buffer [Tris.HCl (20 mM, (pH 8.0), NaCl (420 mM), MgCl2 (0.7 mM), EDTA (0.25 mM), glycerol (25%)] for 30 min at 4° C., and then centrifuged at 15000 g for 15 min at 4° C.
# The complexes described here were specifically designed to release either VPA of PhB inside the cells in the hope that they will inhibit HDAC activity paving the way for more efficient DNA platination. Thus, in addition to measuring the levels of DNA platination, we also measured the ability of these pro-drugs to inhibit HDAC activity in cells. […] For comparison purposes, the HDAC inhibitory effect determined by tested complexes was also assayed in isolated nuclei of MCF-7 treated cells (FIG. 3B).
# The HDAC activity was determined by the Fluor de Lys® Fluorescent Cellular Activity Assay (Enzo Life Sciences).
# Also, MCF-7 cells were incubated for 24 h with increasing concentrations of compounds I-VIII and their HDAC activity was determined. The IC50 values for the inhibition of HDAC activity in the cells are depicted in FIG. 3C.
# PC3 cells = experiment: MTT cytotoxicity assay, PC3; format: cell-based, human; conditions: PC3, 72 h exposure, read-out: IC50 (median growth inhibitory concentration)
# Procedure: as §1, §2, §3
# A375 cells = experiment: MTT cytotoxicity assay, A375; format: cell-based, human
# Procedure: as §6, §5, §7, §8
# MCF-7 cells [4] = experiment: Nuclear DNA fragmentation ELISA, MCF-7; format: cell-based, human; conditions: MCF-7, 24 h, IC50 concentrations
# Source text: FIGS. 4A-4C describe: FIG. 4A—Nuclear DNA fragmentation. […] Quantitative estimation of DNA fragmentation was obtained with an ELISA test. Data are the means of five independent experiments. Error bars indicate SD. […] FIG. 4C—Caspase activity. […] Data are the means of at least three independent experiments. Error bars indicate SD.
# To gain more insights into the mode of action of newly synthesized Pt(IV) derivatives, compounds 1 and 6 were chosen for further experiments. In particular, their capacity to induce apoptosis against human breast MCF-7 cells treated with equitoxic concentrations (IC50 values) of these drugs was evaluated and compared. Nuclear DNA fragmentation and apoptosome complex formation are critical steps in the apoptotic process. […] Apoptotic cell death induction was confirmed through a Hoechst 33342 staining.
# [5] = octanol/water partition, shake-flask method; format: physicochemical
# Procedure: To quantify the hydrophobicity of the platinum complexes, partition coefficients (log P) values for octanol/water partition were measured using the shake-flask method.
# H157 cells = experiment: MTT cytotoxicity assay, H157; format: cell-based, human; conditions: H157, 72 h
# Procedure: as §7, §8
# HCT-15 spheroids = experiment: 3D spheroid APH assay, HCT-15; format: cell-based, human; conditions: HCT-15 spheroids, 72 h, APH test
# Source text: (§9) Acid phosphatase (APH) assay. A modified APH assay, which is based on quantification of cytosolic acid phosphatase activity, was used for determining cell viability in spheroids. […] Triplicate cultures were established for each treatment. […] Evaluation was based on means from at least four independent experiments.
# (§10) In order to improve the predictive capacity of the in vitro assays, we tested the activity in three three-dimensional (3D) cell cultures; human colon cancer cells, HCT-15, and human pancreatic cancer cells, KRAS wild type BxPC3 cells KRAS mutated PSN-1 cells. The cancer spheroids were treated with 3a and 3b for 72 h and the cell viability was assessed by means of the APH assay (Table 6). For comparison purposes, the cytotoxicities of CDDP and OXP were evaluated under the same experimental conditions.
# BxPC3 spheroids = experiment: 3D spheroid APH assay, BxPC3; format: cell-based, human; conditions: 72 h, APH test
# Source text: as §9, §10
# PSN1 cells = experiment: MTT cytotoxicity assay, PSN1; format: cell-based, human; conditions: PSN1, 72 h, MTT
# Procedure: as §7, §8
# A431 cells = experiment: MTT cytotoxicity assay, A431; format: cell-based, human; conditions: A431, 72 h
# Procedure: as §7, §8
# PSN-1 spheroids = experiment: 3D spheroid APH assay, PSN-1; format: cell-based, human; conditions: PSN-1 spheroids, 72 h, APH test
# Source text: as §9, §10
# 2008 cells = experiment: MTT cytotoxicity assay, 2008; format: cell-based, human; conditions: 2008, 72 h, MTT
# Procedure: as §7, §8
# [6] = HCT-15, 72 h exposure, MTT (Table 1), read-out: IC50 (median growth inhibitory concentration)
# [7] = A375, 72 h exposure, MTT (Table 1), read-out: IC50 (median growth inhibitory concentration)
SMILES,IC50 (BxPC3 cells) [µM],IC50 (MCF-7 cells [1]) [µM],IC50 (A2780cisR cells; A2780cisR) [µM],resistance factor (A2780cisR cells),IC50 (nine cancer cell lines) [µM],IC50 (A498 cells) [µM],IC50 (A549 cells) [µM],IC50 (A2780 cells) [µM],IC50 (HCT-15 cells; [6]) [µM],IC50 (PC3 cells) [µM],IC50 (A375 cells; [7]) [µM],further results
"CCCC(CCC)C(=O)[O][Pt]([Cl])([Cl])[O]C(=O)C(CCC)CCC.N.N [I, Ctc-Pt(NH3)2(C8H15O2)2Cl2]]",1.13 ± 0.14,0.91 ± 0.3,0.3 ± 0.1,1.2,1.15,2.43 ± 0.72,1.12 ± 0.32,0.25 ± 0.09,0.81 ± 0.12,2.13 ± 0.45,1.25 ± 0.25,"times more effective/potent than cisplatin (BxPC3 cells; BxPC3): ~10 fold; times more effective/potent than cisplatin (MCF-7 cells [1]; MCF-7): about 19 fold; fold more potent/effective than cisplatin (A2780cisR cells; A2780cisR): 46 fold; fold more potent than the mono-VPA monoacetato analog (nine cancer cell lines; average of the nine cell lines): 4.6 fold; average fold more potent than cisplatin (nine cancer cell lines; average over cell lines): 8 fold; Average tumor weight (mean ± SD, g) [2]: 0.179 ± 0.07 g; Inhibition of tumor growth (%) [2]: 68.21%; fold more potent than cisplatin (A2780 cells; A2780): 11 fold; times more effective than cisplatin (HCT-15 cells; HCT-15): ~14 fold; IC50 for cellular inhibition of HDAC activity (in words) ([3]; MCF-7, 24 h, increasing concentrations): highest inhibitory effect; inhibition of HDAC activity ([3]; MCF-7, 24 h incubation with IC50 concentrations): ~65%; times higher induction of nucleosome formation compared with cisplatin (MCF-7 cells [4]): 1.5 fold"
"CCCC(CCC)C(=O)[O][Pt]([NH2])([NH2])([Cl])([Cl])[O]C(C)=O [II, Pt(NH3)2Cl2(C2H3O2)(C8H15O2)]]",3.54 ± 0.66,5.74 ± 1.1,1.62 ± 0.3,1.6,4.48,4.21 ± 0.95,8.36 ± 1.14,1.02 ± 0.6,6.36 ± 1.03,7.32 ± 1.24,2.17 ± 0.53,fold reduction in potency compared with ctc-[Pt(NH3)2(VPA)2Cl2] (nine cancer cell lines; range over cell lines): 1.7-7.9 fold; Log P [5]: 0.17 ± 0.02
"O=C1[O][Pt]2([NH][C@@H]3CCCC[C@H]3[NH]2)[O]C1=O [OXP, oxaliplatin, reference compound]",4.15 ± 0.93,3.36 ± 0.2,4.2 ± 1.6,–,4.9,7.94 ± 1.04,1.46 ± 0.31,0.52 ± 0.27,1.15 ± 0.43,5.24 ± 0.86,6.3 ± 1.11,"IC50 (H157 cells): 5.99 ± 1.85 µM; IC50 (HCT-15 spheroids): 36.5 ± 3.12 µM; IC50 (BxPC3 spheroids): 75.2 ± 6.91 µM; IC50 (PSN1 cells): 8.25 ± 3.42 µM; IC50 (A431 cells): 3.06 ± 0.88 µM; IC50 (HCT-15 cells; HCT-15, 72 h, MTT (Table 5), read-out: IC50 (μM) ± S.D.): 1.15 ± 0.43 µM; effect on HDAC activity (in words) ([3]; MCF-7, 24 h, IC50 concentrations): not effective in modifying HDAC activity; IC50 (PSN-1 spheroids): 59.7 ± 8.52 µM; IC50 (A375 cells; A375, 72 h, MTT (Table 5), read-out: IC50 (μM) ± S.D.): 6.3 ± 2.01 µM; IC50 (2008 cells): 1.53 ± 0.88 µM"
